Experimental findings from US7569577B2, “Quinazoline derivatives as tyrosine kinase inhibitors” (Astrazeneca AB, priority 2003, dated 2009) are described below.

In series [1] the test system is KB cells. The series can be described thus: EGFR driven KB cell proliferation assay, Test (b). The class given is cell-based. The following applies: Homo sapiens, 96 h, EGF 1 ng/ml, 4 days, MTT. On the procedure:
This assay measures the ability of a test compound to inhibit the proliferation of KB cells (human naso-pharangeal carcinoma obtained from the American Type Culture Collection (ATCC)).
KB cells were cultured in Dulbecco's modified Eagle's medium (DMEM) containing 10% foetal calf serum, 2 mM glutamine and non-essential amino acids at 37° C. in a 7.5% CO2 air incubator. Cells were harvested from the stock flasks using Trypsin/ethylaminediaminetetraacetic acid (EDTA). Cell density was measured using a haemocytometer and viability was calculated using trypan blue solution before being seeded at a density of 1.25×10^3 cells per well of a 96 well plate in DMEM containing 2.5% charcoal stripped serum, 1 mM glutamine and non-essential amino acids at 37° C. in 7.5% CO2 and allowed to settle for 4 hours.
Following adhesion to the plate, the cells are treated with or without EGF (final concentration of 1 ng/ml) and with or without compound at a range of concentrations in dimethylsulfoxide (DMSO) (0.1% final) before incubation for 4 days. Following the incubation period, cell numbers were determined by addition of 50 μl of 3-(4,5-Dimethylthiazol-2-yl)-2,5-diphenyltetrazolium bromide (MTT) (stock 5 mg/ml) for 2 hours. MTT solution was then tipped off, the plate gently tapped dry and the cells dissolved upon the addition of 100 μl of DMSO.
Absorbance of the solubilised cells was read at 540 nm using a Molecular Devices ThermoMax microplate reader. Inhibition of proliferation was expressed as an IC50 value. […] The range of proliferation was calculated from the positive (vehicle plus EGF) and negative (vehicle minus EGF) control values.

The target in series [2] is T1, EGFR tyrosine kinase (Homo sapiens, UniProt P00533).
T1 construct: Recombinant intracellular fragments of EGFR, erbB2 and erbB4; made in house; host or cells: baculovirus/Sf21 insect cells (cleared lysate used)
The series can be described thus: Protein tyrosine kinase phosphorylation assay, Test (a). The class given is biochemical. The following applies: ATP at Km concentration; read-out: IC50 (nM) Test (a) (Inhibition of EGFR tyrosine kinase protein phosphorylation). On the procedure: This test measures the ability of a test compound to inhibit the phosphorylation of a tyrosine containing polypeptide substrate by EGFR, erbB2 or erbB4 tyrosine kinase enzyme.
Recombinant intracellular fragments of EGFR, erbB2 and erbB4 (accession numbers X00588, X03363 and L07868 respectively) were cloned and expressed in the baculovirus/Sf21 system. Lysates were prepared from these cells by treatment with ice-cold lysis buffer (20 mM N-2-hydroxyethylpiperizine-N′-2-ethanesulfonic acid (HEPES) pH 7.5, 150 mM NaCl, 10% glycerol, 1% Triton X-100, 1.5 mM MgCl2, 1 mM ethylene glycol-bis(β-aminoethyl ether) N′,N′,N′,N′-tetraacetic acid (EGTA), plus protease inhibitors and then cleared by centrifugation.
Constitutive kinase activity of these recombinant proteins was determined by their ability to phosphorylate a synthetic peptide (made up of a random co-polymer of Glutamic Acid, Alanine and Tyrosine in the ratio of 6:3:1). Specifically, Maxisorb™ 96-well immunoplates were coated with synthetic peptide (0.2 μg of peptide in a 200 μl phosphate buffered saline (PBS) solution and incubated at 4° C. overnight). Plates were washed in 50 mM HEPES pH 7.4 at room temperature to remove any excess unbound synthetic peptide. EGFR or erbB2 activities were assessed by incubation in peptide coated plates for 20 minutes at room temperature in 100 mM HEPES pH 7.4 at room temperature, adenosine trisphosphate (ATP) at Km concentration for the respective enzyme, 10 mM MnCl2, 0.1 mM Na3VO4, 0.2 mM DL-dithiothreitol (DTT), 0.1% Triton X-100 with test compound in DMSO (final concentration of 2.5%). Reactions were terminated by the removal of the liquid components of the assay followed by washing of the plates with PBS-T (phosphate buffered saline with 0.5% Tween 20).
The immobilised phospho-peptide product of the reaction was detected by immunological methods. Firstly, plates were incubated for 90 minutes at room temperature with anti-phosphotyrosine primary antibodies that were raised in the mouse (4G10 from Upstate Biotechnology). Following extensive washing, plates were treated with Horseradish Peroxidase (HRP) conjugated sheep anti-mouse secondary antibody (NXA931 from Amersham) for 60 minutes at room temperature. After further washing, HRP activity in each well of the plate was measured colorimetrically using 22′-Azino-di-[3-ethylbenzthiazoline sulfonate (6)] diammonium salt crystals (ABTS™ from Roche) as a substrate.
Quantification of colour development and thus enzyme activity was achieved by the measurement of absorbance at 405 nm on a Molecular Devices ThermoMax microplate reader. Kinase inhibition for a given compound was expressed as an IC50 value. […] The range of phosphorylation was calculated from the positive (vehicle plus ATP) and negative (vehicle minus ATP) control values.

T1 sequence (P00533 669-1210 limits assumed): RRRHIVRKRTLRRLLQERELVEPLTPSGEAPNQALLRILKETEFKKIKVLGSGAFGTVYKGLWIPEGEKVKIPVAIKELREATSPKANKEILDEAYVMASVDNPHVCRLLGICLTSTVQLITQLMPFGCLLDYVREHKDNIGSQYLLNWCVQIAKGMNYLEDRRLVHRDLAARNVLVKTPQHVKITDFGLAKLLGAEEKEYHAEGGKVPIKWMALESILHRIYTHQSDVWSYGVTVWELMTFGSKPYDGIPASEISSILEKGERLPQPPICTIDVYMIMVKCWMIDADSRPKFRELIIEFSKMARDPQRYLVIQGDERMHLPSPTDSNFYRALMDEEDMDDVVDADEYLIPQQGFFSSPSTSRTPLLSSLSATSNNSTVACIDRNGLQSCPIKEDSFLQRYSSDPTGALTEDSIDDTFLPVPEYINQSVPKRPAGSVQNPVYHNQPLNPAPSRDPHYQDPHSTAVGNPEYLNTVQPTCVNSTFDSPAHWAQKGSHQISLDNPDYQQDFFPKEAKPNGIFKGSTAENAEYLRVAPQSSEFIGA

As for `COCCOCC(=O)N1CCC(Oc2cc3ncnc(Nc4cccc(Cl)c4F)c3cc2OC)CC1` [Example 2, N-(3-Chloro-2-fluorophenyl)-6-methoxy-7-({1-[(2-methoxyethoxy)acetyl]piperidin-4-yl}oxy)quinazolin-4-amine], the melting point (in general, the temperature of the solid-liquid transition) lay in the range of 110 to 111 °C. Also, in series [1], the IC50 – broadly, the concentration at which inhibition is half-maximal – turned out to be 112 nM. Besides, in series [2], the IC50 was determined as 76 nM.
In turn, `COc1cc2c(Nc3ccc(Cl)cc3F)ncnc2cc1OC1CCN(C(=O)[C@H](C)O)CC1` (hydrate or solvate) [Example 32] returned a melting point of 149 °C.
With `COc1cc2c(Nc3ccc(Cl)cc3F)ncnc2cc1OC1CCN(C(=O)[C@@H](C)O)CC1` (hydrate or solvate) [Example 33, (2R)-1-[4-({4-[4-chloro-2-fluoroanilino]-6-methoxyquinazolin-7-yl}oxy)piperidin-1-yl]-1-oxopropan-2-ol], the melting point was 118 °C.
Same read-out and setting: to `COc1cc2c(Nc3cccc(Cl)c3F)ncnc2cc1OC1CCN(C(=O)[C@@H]2CCCN2C)CC1` (hydrate or solvate) [Example 34, N-(3-chloro-2-fluorophenyl)-6-methoxy-7-{[1-(1-methyl-L-prolyl)piperidin-4-yl]oxy}quinazolin-4-amine] belongs 193 °C.
As for `COc1cc2c(Nc3cccc(Cl)c3F)ncnc2cc1OC1CCN(C(=O)CO)CC1` [4[1], 2-[4-({4-[3-Chloro-2-fluoroanilino]-6-methoxyquinazolin-7-yl}oxy)piperidin-1-yl]-2-oxoethanol], the IC50 in series [1] was found to be 37 nM; in series [2] it was 30 nM.
Turning to `COCCC(=O)N1CCC(Oc2cc3ncnc(Nc4cccc(Cl)c4F)c3cc2OC)CC1` [4[3], N-(3-Chloro-2-fluorophenyl)-6-methoxy-7-{[1-(3-methoxypropanoyl)piperidin-4-yl]oxy}quinazolin-4-amine], the IC50 in series [1] was found to be 84 nM; in series [2], 65 nM.
Consider `COc1cc2c(Nc3ccc(F)c(Cl)c3)ncnc2cc1OC1CCN(C(=O)[C@@H](C)O)CC1` (hydrate or solvate) [Example 23, (2R)-1-[4-({4-[3-Chloro-4-fluoroanilino]-6methoxyquinazolin-7-yl}oxy)piperidin-1-yl]-1-oxopropan-2-ol], for which the melting point came to 143.6 °C.
As for `COCC(=O)N1CCC(Oc2cc3ncnc(Nc4cccc(Cl)c4F)c3cc2OC)CC1` [Example 3, N-(3-Chloro-2-fluorophenyl)-6methoxy-7-{[1-(methoxyacetyl)piperidin-4-yl]oxy}quinazolin-4-amine], the figures for the IC50 in series [1] and in series [2] were 55 nM and 41 nM, respectively.
With `COc1cc2c(Nc3cccc(Cl)c3F)ncnc2cc1OC1CCN(C(=O)CCO)CC1` [4[4], 3-[4-({4-[3-Chloro-2-fluoroanilino]-6-methoxyquinazolin-7-yl}oxy)piperidin-1-yl]-3-oxopropan-1-ol], the IC50 in series [1] was determined as 109 nM; in series [2], 52 nM.
With `COc1cc2c(Nc3cccc(Cl)c3F)ncnc2cc1OC1CCN(C(=O)[C@@H](C)O)CC1` [Example 9, (2R)-1-[4-({4-[3-Chloro-2-fluoroanilino]-6-methoxyquinazolin-7-yl}oxy)piperidin-1-yl]-1-oxopropan-2-ol], the melting point lay within 189 to 189.5 °C.
Consider `COc1cc2c(Nc3cccc(Cl)c3F)ncnc2cc1OC1CCN(C(=O)[C@H](C)O)CC1` [Example 4[5], (2S)-1-[4-({4-[3-chloro-2-fluoroanilino]-6-methoxyquinazolin-7-yl}oxy)piperidin-1-yl]-1-oxopropan-2-ol], for which the melting point was in the range of 107 to 111 °C.
Same read-out and setting: with `COc1cc2c(Nc3cccc(Cl)c3F)ncnc2cc1O[C@H]1CCCN(C(=O)CN2CCN(C)CC2)C1` [Example 7, N-(3-Chloro-2-fluorophenyl)-6-methoxy-7-({(3S)-1-[(4-methylpiperazin-1-yl)acetyl]piperidin-3-yl}oxy)quinazolin-4-amine] the figure was 120 to 121 °C.
